# In ChEMBL document CHEMBL5030563, “Structure-Based Design of Dual-Acting Compounds Targeting Adenosine A2A Receptor and Histone Deacetylase as Novel Tumor Immunotherapeutic Agents” (J Med Chem, 2021):
# Experiments:
# [1] = test system: CT26; assay: Antiproliferative activity against mouse CT26 cells measured after 72 hrs by CCK8 assay; format: functional
# [2] = target: Adenosine receptor A2a (Homo sapiens, UniProt P29274); assay: Displacement of [3H]SCH58261 from adenosine A2A receptor membrane (unknown origin) measured after 60 mins by scintillation counting analysis; format: cell membranes
# Adenosine receptor A2a, sequence (P29274 whole entry): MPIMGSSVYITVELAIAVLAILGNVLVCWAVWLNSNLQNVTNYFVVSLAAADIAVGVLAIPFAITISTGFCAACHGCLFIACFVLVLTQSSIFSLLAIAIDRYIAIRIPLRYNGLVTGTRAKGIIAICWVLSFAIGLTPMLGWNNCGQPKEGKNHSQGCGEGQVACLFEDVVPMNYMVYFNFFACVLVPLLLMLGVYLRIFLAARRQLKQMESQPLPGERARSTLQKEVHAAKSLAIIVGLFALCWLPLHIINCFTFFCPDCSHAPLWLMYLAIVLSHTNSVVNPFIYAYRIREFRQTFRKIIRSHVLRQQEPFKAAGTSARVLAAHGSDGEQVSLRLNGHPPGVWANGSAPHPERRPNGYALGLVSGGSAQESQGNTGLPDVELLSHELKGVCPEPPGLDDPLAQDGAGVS
# [3] = test system: MC-38; assay: Antiproliferative activity against mouse MC38 cells measured after 72 hrs by CCK8 assay; format: functional
# [4] = target: Histone deacetylase 1 (Homo sapiens, UniProt Q13547); assay: Inhibition of HDAC1 (unknown origin) assessed as release of 7-amino-4-methylcoumarin incubated in room temperature for 15 min measured by Spectra max microtitre plate reader
# Histone deacetylase 1, sequence (Q13547 whole entry): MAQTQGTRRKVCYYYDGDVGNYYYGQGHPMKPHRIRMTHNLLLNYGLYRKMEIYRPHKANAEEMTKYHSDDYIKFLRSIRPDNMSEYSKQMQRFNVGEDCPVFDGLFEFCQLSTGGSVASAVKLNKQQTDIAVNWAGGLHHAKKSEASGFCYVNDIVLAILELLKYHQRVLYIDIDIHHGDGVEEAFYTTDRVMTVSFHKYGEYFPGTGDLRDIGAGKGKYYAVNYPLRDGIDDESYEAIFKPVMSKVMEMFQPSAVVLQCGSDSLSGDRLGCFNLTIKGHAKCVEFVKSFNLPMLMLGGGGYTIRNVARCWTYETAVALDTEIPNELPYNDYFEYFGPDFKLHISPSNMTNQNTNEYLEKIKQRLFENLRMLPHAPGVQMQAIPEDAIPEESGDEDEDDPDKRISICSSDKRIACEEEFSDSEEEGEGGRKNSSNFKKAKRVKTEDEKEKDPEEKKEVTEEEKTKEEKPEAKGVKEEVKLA
# [5] = target: T1, Protein deacetylase HDAC6 (Homo sapiens, UniProt Q9UBN7); assay: Inhibition of HDAC6 (unknown origin) assessed as release of 7-amino-4-methylcoumarin incubated in room temperature for 15 min measured by Spectra max microtitre plate reader
# T1 sequence (Q9UBN7 whole entry): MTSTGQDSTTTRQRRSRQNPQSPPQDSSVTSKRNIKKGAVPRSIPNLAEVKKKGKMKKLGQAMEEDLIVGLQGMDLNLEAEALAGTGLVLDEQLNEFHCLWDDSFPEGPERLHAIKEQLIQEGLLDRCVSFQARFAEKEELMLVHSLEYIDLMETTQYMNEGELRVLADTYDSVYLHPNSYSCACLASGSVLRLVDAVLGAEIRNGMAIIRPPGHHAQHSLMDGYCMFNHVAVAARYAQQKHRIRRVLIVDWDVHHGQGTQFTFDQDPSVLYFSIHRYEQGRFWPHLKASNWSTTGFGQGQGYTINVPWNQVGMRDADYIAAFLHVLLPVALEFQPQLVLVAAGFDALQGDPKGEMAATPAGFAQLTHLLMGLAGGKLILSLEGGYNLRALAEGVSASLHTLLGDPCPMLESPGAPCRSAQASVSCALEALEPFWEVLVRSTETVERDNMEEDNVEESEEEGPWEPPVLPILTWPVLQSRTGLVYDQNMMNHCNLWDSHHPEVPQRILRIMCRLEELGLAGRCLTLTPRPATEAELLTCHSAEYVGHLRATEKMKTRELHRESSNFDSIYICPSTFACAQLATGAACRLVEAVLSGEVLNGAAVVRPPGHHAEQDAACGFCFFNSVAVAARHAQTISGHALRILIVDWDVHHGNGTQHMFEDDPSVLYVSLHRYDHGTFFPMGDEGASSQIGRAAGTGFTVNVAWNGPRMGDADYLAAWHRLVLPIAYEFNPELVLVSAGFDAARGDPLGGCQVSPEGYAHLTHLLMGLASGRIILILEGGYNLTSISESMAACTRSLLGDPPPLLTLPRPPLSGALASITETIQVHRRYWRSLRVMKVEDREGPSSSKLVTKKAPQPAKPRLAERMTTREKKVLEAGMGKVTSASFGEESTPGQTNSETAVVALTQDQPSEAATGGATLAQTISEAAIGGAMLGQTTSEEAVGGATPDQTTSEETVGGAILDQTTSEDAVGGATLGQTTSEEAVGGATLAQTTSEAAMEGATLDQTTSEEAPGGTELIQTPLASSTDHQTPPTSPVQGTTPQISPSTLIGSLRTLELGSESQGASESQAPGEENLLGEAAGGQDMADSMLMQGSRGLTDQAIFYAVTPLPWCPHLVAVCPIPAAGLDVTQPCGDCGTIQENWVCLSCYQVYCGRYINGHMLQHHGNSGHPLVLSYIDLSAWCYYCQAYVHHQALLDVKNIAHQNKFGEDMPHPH
"GI50 ([1]; Mus musculus, CT26) [nM]",Ki [2] [nM],IC50 [4] [nM],IC50 [5] [nM],GI50 [1] [nM],Compound,"GI50 ([3]; Mus musculus, MC-38) [nM]",GI50 [3] [nM]
> 100000,10.2,7.4,3.2,,Nc1nc(NCCOc2ccc(C(=O)NO)cc2)nc2nc(-c3ccco3)nn12,> 100000,
44000,9.6,173,> 10000,,Nc1cc(F)ccc1NC(=O)c1ccc(CCNc2nc(N)n3nc(-c4ccco4)nc3n2)cc1,25900,
> 100000,8.4,23.7,4.9,,Nc1nc(NCCCc2ccc(C(=O)NO)cc2)nc2nc(-c3ccco3)nn12,> 100000,
,2.4,175,22,,CCN(CCc1ccc(C(=O)NO)cc1)c1nc(N)n2nc(-c3ccco3)nc2n1,,
,6,108,132,,Nc1nc(NCCc2ccc(OCCCC(=O)NO)cc2)nc2nc(-c3ccco3)nn12,,
17500,27,5,9,,Nc1nc(NCc2ccc(/C=C/C(=O)NO)cc2)nc2nc(-c3ccco3)nn12,20700,
59100,3.9,137,> 10000,,Nc1ccccc1NC(=O)c1ccc(CCNc2nc(N)n3nc(-c4ccco4)nc3n2)cc1,48200,
,19.9,162,35,,Nc1nc(NCc2ccc(OCCCCC(=O)NO)cc2)nc2nc(-c3ccco3)nn12,,
,5.8,102,37,,Nc1nc(NCCc2ccc(OCCCCC(=O)NO)cc2)nc2nc(-c3ccco3)nn12,,
,,> 10000,> 1000,,Nc1nc(NCCc2ccc(O)cc2)nc2nc(-c3ccco3)nn12 [ZM-241385],,
8800,43.7,279,,,Nc1ccccc1NC(=O)c1ccc(OCCn2ncc3c2nc(N)n2nc(-c4ccco4)nc32)cc1,7100,
,2,81,16,,Nc1nc2c(cnn2CCc2ccc(OCCCCCC(=O)NO)cc2)c2nc(-c3ccco3)nn12,,
,60.4,> 10000,,,Nc1nc2c(cnn2CCN2Cc3ccc(C(=O)NO)cc3C2)c2nc(-c3ccco3)nn12,,
,84.8,21.5,3,,Nc1nc(NCc2ccc(C(=O)NO)cc2)nc2nc(-c3ccco3)nn12,,

# Further lines, the molecule ahead of its results:
Compound,"GI50 ([1]; Mus musculus, CT26) [nM]",Ki [2] [nM],IC50 [4] [nM],IC50 [5] [nM],GI50 [1] [nM],"GI50 ([3]; Mus musculus, MC-38) [nM]",GI50 [3] [nM]
Nc1ccccc1NC(=O)c1ccc(CCn2ccc3c2nc(N)n2nc(-c4ccco4)nc32)cc1,> 100000,0.87,90,,,> 100000,
Nc1nc2c(cnn2CCCCCCC(=O)NO)c2nc(-c3ccco3)nn12,1400,10.1,3.8,6.6,,1400,
Nc1nc2c(cnn2CCN2CCc3ccc(C(=O)NO)cc3C2)c2nc(-c3ccco3)nn12,,5.6,399,80,,,
Nc1ccccc1NC(=O)c1ccc(Cn2ncc3c2nc(N)n2nc(-c4ccco4)nc32)cc1,,86.9,53,> 10000,,,
Nc1cc(F)ccc1NC(=O)c1ccc(CCCn2ncc3c2nc(N)n2nc(-c4ccco4)nc32)cc1,,10.1,2680,,,,
Nc1ccccc1NC(=O)c1ccc(CNc2nccc(-c3cccnc3)n2)cc1 [MOCETINOSTAT],1800,,,,,21000,
Nc1nc2c(cnn2CCCCC(=O)NO)c2nc(-c3ccco3)nn12,,82.8,486,74,,,
Cc1ccc(-c2nc3c4cnn(CCc5ccc(C(=O)Nc6ccccc6N)cc5)c4nc(N)n3n2)o1,> 100000,18.5,126,,,> 100000,
Nc1ccccc1NC(=O)c1ccc(CCCn2ncc3c2nc(N)n2nc(-c4ccco4)nc32)cc1,> 100000,3.3,203,,,> 100000,
Nc1cc(F)ccc1NC(=O)c1ccc(CCn2ncc3c2nc(N)n2nc(-c4ccco4)nc32)cc1,11200,2.8,228,,,10800,
O=C(CCCCCCC(=O)Nc1ccccc1)NO [VORINOSTAT],,,,,2700,,2400
